Values after ≈ are worked out from the molar mass of the structure shown. Blank lines part the entries; values can stand above or below the molecule they belong to. Active and inactive are the calls of the source. The calls are words filed in the database; no cut-off is given here.
Assays:
[1] = Binding affinity to 2AP-labelled duplex RNA (unknown origin) by fluorescence spectrophotometric analysis
Bacterial 70S ribosome = assay: Binding affinity to Escherichia coli ribosome assessed as inhibition of transcription-translation activity preincubated for 30 mins followed by substrate addition measured after 5 mins by luciferase assay
Escherichia coli [2] = assay: Antibacterial activity against kanamycin-resistant Escherichia coli K-12 JW 0451-2 harboring acrB747 deletion mutant assessed as growth inhibition after 18 hrs by geometric microdilution method; format: functional; conditions: K-12 JW 0451-2, 18 h
Escherichia coli [3] = assay: Antibacterial activity against kanamycin-resistant Escherichia coli K-12 JW 3596-1 harboring rfaC733 deletion mutant assessed as growth inhibition after 18 hrs by geometric microdilution method; format: functional; conditions: K-12 JW 3596-1, 18 h
Escherichia coli [4] = assay: Antibacterial activity against Escherichia coli ATCC 25922 assessed as growth inhibition after 18 hrs by geometric microdilution method; format: functional
Staphylococcus aureus = assay: Antibacterial activity against Staphylococcus aureus ATCC 29213 assessed as growth inhibition after 18 hrs by geometric microdilution method; format: functional
Escherichia coli [5] = assay: Antibacterial activity against kanamycin-resistant Escherichia coli K-12 JW 5503-1 harboring tolc732 deletion mutant assessed as growth inhibition after 18 hrs by geometric microdilution method; format: functional; conditions: K-12 JW 5503-1, 18 h
Pseudomonas aeruginosa = assay: Antibacterial activity against Pseudomonas aeruginosa ATCC 27853 assessed as growth inhibition after 18 hrs by geometric microdilution method; format: functional

Structure (SMILES): N=C(N)NCCC[C@H](N)C(=O)NC[C@@H]1CC[C@@]2(O1)[C@H](O)[C@@H](O)[C@H](N)C[C@@H]2N
- EC50 [1]: 1.5 µM
- IC50 (Bacterial 70S ribosome): 98 µM

Structure (SMILES): N[C@@H]1C[C@H](N)[C@@]2(CC[C@@H](CNC(=O)[C@@H](N)Cc3c[nH]c4ccccc34)O2)[C@H](O)[C@H]1O
- MIC (Escherichia coli [2]): 32.5 mg/L (≈ 77.8 µM)
- MIC (Escherichia coli [3]): > 131 mg/L
- IC50 (Bacterial 70S ribosome): 149 µM
- MIC (Escherichia coli [4]; ATCC 25922, 18 h): 98 mg/L (≈ 235 µM)
- MIC (Staphylococcus aureus; ATCC 29213, 18 h): 8.4 mg/L (≈ 20.1 µM)
- MIC (Escherichia coli [5]): 131 mg/L (≈ 314 µM)
- MIC (Pseudomonas aeruginosa; ATCC 27853, 18 h): 65 mg/L (≈ 156 µM)

Structure (SMILES): N[C@@H]1C[C@H](N)[C@@]2(CC[C@@H](CNC(=O)[C@@H]3CCCN3)O2)[C@H](O)[C@H]1O
- EC50 [1]: 0.68 µM
- IC50 (Bacterial 70S ribosome): 156 µM

Structure (SMILES): NCC[C@H](O)C(=O)N[C@@H]1C[C@H](N)[C@@]2(CC[C@@H](O)[C@@H](O)CO2)[C@H](O)[C@H]1O
- EC50 [1]: 0.39 µM
- IC50 (Bacterial 70S ribosome): > 600 µM

Structure (SMILES): NCCCC[C@H](N)C(=O)N[C@@H]1C[C@H](N)[C@@]2(CC[C@@H](O)[C@@H](O)CO2)[C@H](O)[C@H]1O
- EC50 [1]: 1.2 µM
- IC50 (Bacterial 70S ribosome): > 600 µM

Structure (SMILES): NC[C@H]1O[C@H](O[C@H]2[C@H](O)[C@@H](O)[C@H](N)C[C@@H]2N)[C@H](N)[C@@H](O)[C@@H]1O [NEAMINE]
- MIC (Escherichia coli [2]): 150 mg/L (≈ 465 µM)
- MIC (Escherichia coli [3]): 150 mg/L (≈ 465 µM)
- EC50 [1]: 9.5 µM
- MIC (Escherichia coli [4]; ATCC 25922, 18 h): 14 mg/L (≈ 43.4 µM)
- MIC (Staphylococcus aureus; ATCC 29213, 18 h): 5 mg/L (≈ 15.5 µM)
- MIC (Escherichia coli [5]): 300 mg/L (≈ 931 µM)
- MIC (Pseudomonas aeruginosa; ATCC 27853, 18 h): 73 mg/L (≈ 226 µM)

- EC50 [1]: 6.9 µM
Structure (SMILES): NCC[C@H](O)C(=O)N[C@@H]1C[C@H](N)[C@@]2(CC[C@H](O)[C@H](O)CO2)[C@H](O)[C@H]1O

- EC50 [1]: 6.5 µM
Structure (SMILES): N[C@@H]1C[C@H](N)[C@@]2(C[C@H](O)[C@H](O)CO2)[C@H](O)[C@H]1O

Structure (SMILES): NCCCC[C@H](N)CN[C@@H]1C[C@H](N)[C@@]2(C[C@H](O)[C@H](O)CO2)[C@H](O)[C@H]1O
- EC50 [1]: 0.15 µM
- IC50 (Bacterial 70S ribosome): 540 µM

Structure (SMILES): NCC[C@H](O)C(=O)N[C@@H]1C[C@H](N)[C@@]2(C[C@H](O)[C@H](O)CO2)[C@H](O)[C@H]1O
- EC50 [1]: 12.6 µM
- IC50 (Bacterial 70S ribosome): > 600 µM

Structure (SMILES): NCCCC[C@H](N)CN[C@@H]1C[C@H](N)[C@@]2(CC[C@H](O)[C@H](O)CO2)[C@H](O)[C@H]1O
- MIC (Escherichia coli [2]): 118 mg/L (≈ 313 µM)
- MIC (Escherichia coli [3]): > 118 mg/L
- EC50 [1]: 0.09 µM
- IC50 (Bacterial 70S ribosome): 100 µM
- MIC (Escherichia coli [4]; ATCC 25922, 18 h): 236 mg/L (≈ 627 µM)
- MIC (Staphylococcus aureus; ATCC 29213, 18 h): 3.8 mg/L (≈ 10.1 µM)
- MIC (Escherichia coli [5]): 118 mg/L (≈ 313 µM)
- MIC (Pseudomonas aeruginosa; ATCC 27853, 18 h): > 118 mg/L

- EC50 [1]: 141 µM
Structure (SMILES): N[C@@H]1C[C@H](N)[C@@]2(CC[C@@H](O)[C@@H](O)CO2)[C@H](O)[C@H]1O

Structure (SMILES): N[C@@H](Cc1ccc(O)cc1)C(=O)N[C@@H]1C[C@H](N)[C@@]2(CC[C@H](O)[C@H](O)CO2)[C@H](O)[C@H]1O
- IC50 (Bacterial 70S ribosome): 450 µM

Structure (SMILES): NC[C@@H]1O[C@H](O[C@H]2[C@@H](O)[C@H](O[C@@H]3[C@@H](O)[C@H](N)C[C@H](N)[C@H]3O[C@H]3O[C@H](CO)[C@@H](O)[C@H](O)[C@H]3N)O[C@@H]2CO)[C@H](N)[C@@H](O)[C@@H]1O [PAROMOMYCIN]
- MIC (Escherichia coli [2]): 113 mg/L (≈ 184 µM)
- MIC (Escherichia coli [3]): 113 mg/L (≈ 184 µM)
- MIC (Escherichia coli [4]; ATCC 25922, 18 h): 4 mg/L (≈ 6.5 µM)
- MIC (Staphylococcus aureus; ATCC 29213, 18 h): 4 mg/L (≈ 6.5 µM)
- MIC (Escherichia coli [5]): 113 mg/L (≈ 184 µM)
- MIC (Pseudomonas aeruginosa; ATCC 27853, 18 h): 113 mg/L (≈ 184 µM)

Structure (SMILES): N[C@@H]1C[C@H](N)[C@@]2(CC[C@@H](CNC(=O)[C@@H](N)Cc3cnc[nH]3)O2)[C@H](O)[C@H]1O
- EC50 [1]: 1.6 µM
- IC50 (Bacterial 70S ribosome): 172 µM

Structure (SMILES): N[C@H](CN[C@@H]1C[C@H](N)[C@@]2(CC[C@@H](O)[C@@H](O)CO2)[C@H](O)[C@H]1O)Cc1ccc(O)cc1
- IC50 (Bacterial 70S ribosome): > 600 µM

- EC50 [1]: 12 µM
Structure (SMILES): NCCCC[C@H](N)C(=O)N[C@@H]1C[C@H](N)[C@@]2(CC[C@H](O)[C@H](O)CO2)[C@H](O)[C@H]1O

Structure (SMILES): N[C@H](CN[C@@H]1C[C@H](N)[C@@]2(CC[C@H](O)[C@H](O)CO2)[C@H](O)[C@H]1O)Cc1ccc(O)cc1
- MIC (Escherichia coli [2]): 129 mg/L (≈ 313 µM)
- MIC (Escherichia coli [3]): > 129 mg/L
- IC50 (Bacterial 70S ribosome): > 600 µM
- MIC (Escherichia coli [4]): inactive
- MIC (Staphylococcus aureus): inactive
- MIC (Escherichia coli [5]): > 129 mg/L
- MIC (Pseudomonas aeruginosa): inactive

Structure (SMILES): N[C@@H]1C[C@H](N)[C@@]2(CC[C@@H](CNC(=O)[C@@H](N)Cc3ccc(O)cc3)O2)[C@H](O)[C@H]1O
- IC50 (Bacterial 70S ribosome): > 600 µM

Structure (SMILES): NCCCC[C@H](N)C(=O)N[C@@H]1C[C@H](N)[C@@]2(C[C@H](O)[C@H](O)CO2)[C@H](O)[C@H]1O
- EC50 [1]: 0.89 µM
- IC50 (Bacterial 70S ribosome): 350 µM

Structure (SMILES): NCC[C@H](O)CN[C@@H]1C[C@H](N)[C@@]2(CC[C@H](O)[C@H](O)CO2)[C@H](O)[C@H]1O
- EC50 [1]: 0.93 µM
- IC50 (Bacterial 70S ribosome): > 600 µM

Structure (SMILES): NCCCC[C@H](N)C(=O)NC[C@@H]1CC[C@@]2(O1)[C@H](O)[C@@H](O)[C@H](N)C[C@@H]2N
- MIC (Escherichia coli [2]): > 112 mg/L
- MIC (Escherichia coli [3]): 112 mg/L (≈ 312 µM)
- EC50 [1]: 1.4 µM
- IC50 (Bacterial 70S ribosome): 325 µM
- MIC (Escherichia coli [4]; ATCC 25922, 18 h): > 112 mg/L
- MIC (Staphylococcus aureus; ATCC 29213, 18 h): 7.2 mg/L (≈ 20 µM)
- MIC (Escherichia coli [5]): > 112 mg/L
- MIC (Pseudomonas aeruginosa; ATCC 27853, 18 h): > 112 mg/L

Structure (SMILES): NCCCC[C@H](N)CN[C@@H]1C[C@H](N)[C@@]2(CC[C@@H](O)[C@@H](O)CO2)[C@H](O)[C@H]1O
- MIC (Escherichia coli [2]): 118 mg/L (≈ 313 µM)
- MIC (Escherichia coli [3]): > 118 mg/L
- EC50 [1]: 0.65 µM
- IC50 (Bacterial 70S ribosome): > 600 µM
- MIC (Escherichia coli [4]; ATCC 25922, 18 h): 236 mg/L (≈ 627 µM)
- MIC (Staphylococcus aureus; ATCC 29213, 18 h): 14.7 mg/L (≈ 39 µM)
- MIC (Escherichia coli [5]): > 118 mg/L
- MIC (Pseudomonas aeruginosa; ATCC 27853, 18 h): > 118 mg/L

Structure (SMILES): N[C@@H](Cc1ccc(O)cc1)C(=O)N[C@@H]1C[C@H](N)[C@@]2(C[C@H](O)[C@H](O)CO2)[C@H](O)[C@H]1O
- IC50 (Bacterial 70S ribosome): > 600 µM

Structure (SMILES): N[C@@H](Cc1ccc(O)cc1)C(=O)N[C@@H]1C[C@H](N)[C@@]2(CC[C@@H](O)[C@@H](O)CO2)[C@H](O)[C@H]1O
- IC50 (Bacterial 70S ribosome): > 600 µM

- EC50 [1]: 74 µM
Structure (SMILES): N[C@@H]1C[C@H](N)[C@@]2(CC[C@H](O)[C@H](O)CO2)[C@H](O)[C@H]1O
